Data taken from patent US11800869B2, “Use of 6-oxo-1,4,5,6-tetrahydropyridazine-3-carboxylic acid, 1-methyl 6-oxo-1,4,5,6-tetrahydropyridazine-3-carboxylic acid and 1-alkyl-6-oxo-1,4,5,6-tetrahydropyridazine-3-carboxylic acid for improving growth performance in plants” (Advanced Crop Chem LLP, priority 2020, dated 2023).

Assays:
Type in all cases: in vivo
[1] = system: Field grown wheat plants (Var: AWC 13); test: Foliar treatment of field grown wheat (Example 6); settings: foliar treatment at Zadoks GS 25-26, 100 g in 200 L water, mean of 10 plants
Method: Field grown wheat plants (Var: AWC 13) were given foliar treatment at Zadoks GS 25-26 (FIG. 1) of 6-oxo-1,4,5,6 tetrahydropyridazine-3-carboxylic acid (THP) or 1-methyl 6-oxo-1,4,5,6 tetrahydropyridazine-3-carboxylic acid (MTHP) both at 100 g in 200 L water plus 0.25% Nouryon wetter. Plants were grown under standard UK wheat growing cultural practice (https://andb.org.uk/wheatgg). Yield was assessed at harvest.

[2] = system: wheat (Var. VitPro) seedlings; test: Foliar treatment of wheat, relative water content under drought stress (Example 17); settings: drought stressed, flag leaves, untreated drought stressed 35.8%
Method: Wheat seedlings were given foliar treatments with a range of concentrations of 6-oxo-1,4,5,6 tetrahydropyridazine-3-carboxylic acid and the seedlings were grown to near maturity and drought stressed. Their relative water contents were determined to examine the effectiveness of different concentrations of 6-oxo-1,4,5,6-tetrahydropyridizine-3-carboxylic acid in conferring drought resistance.
Sets of wheat (Var. VitPro) seedlings were given foliar treatments of 6-oxo-1,4,5,6 tetrahydropyridazine-3-carboxylic acid at concentrations of 1 mM or 0.1 mM in aqueous solutions. Two treatments were made; one at Zaddok GS 12(FIG. 1) and a second at Zadoks GS 14 (FIG. 1) and the plants grown until the first flag leaf was fully developed on the control plants. The treated plants and one set of controls were then drought stressed and the relative water content was determined for each set of plants. There were two sets of control plants; one was maintained with normal watering and a second control was drought stressed along with the treated plants. When each of the plants had at least two wilted leaves the water content of the drought stressed plants was determined relative to that of the normal, well-watered control plants. The flag leaves were harvested and used to determine the relative water content.

[3] = system: Winter wheat variety AWC 13; test: Wheat seed treatment, field grown, root biomass (Example 14); settings: untreated 0.66
Method: Wheat seeds were treated with 6-oxo-1,4,5,6 tetrahydropyridizine-3-carboxylic acid treated plants to examine the impact on shoot and root biomass for field grown plants. Winter wheat variety AWC 13 seeds were treated with 6-oxo-1,4,5,6-tetrahydropyridazine-3-carboxylic acid and field grown. The plants from seeds treated with 6-oxo-1,4,5,6 tetrahydropyridazine-3-carboxylic acid had larger root biomass (0.85 g dry weight/plant) compared with plants from untreated seeds (0.66 g dry weight/plant).

[4] = system: wheat seedlings (Var. VitPro); test: Foliar treatment of wheat seedlings, number of tillers (Example 13); settings: counted at Zadoks GS 15, untreated 3.7
Method: Wheat seedlings were given foliar treatments with a range of concentrations of 6-oxo-1,4,5,6 tetrahydropyridazine-3-carboxylic acid and the seedlings were grown and the numbers of tillers each plant produced was monitored as shown in Table 4. The number of tillers is considered positively related to grain yield. Sets of wheat seedlings (Var. VitPro) were given foliar treatments of 6-oxo-1,4,5,6 tetrahydropyridazine-3-carboxylic acid at concentrations of 0.1 mM, 0.01 mM or 0.001 mM *in a standard nutrient solution. Seedlings were given one foliar treatment at Zadoks GS 12 (FIG. 1); the plants grown in a greenhouse and fed a standard plant nutrient solution. The untreated control plants were sprayed with the nutrient solution containing sodium dodecyl sulfate, 0.1% and glycerol 1.2%. The number of tillers for each plant were counted at Zadoks GS 15 (FIG. 1) and the average number of tillers per plant calculated.

Corn = test: Seed treatment plus foliar spray, root and shoot biomass and emergence, corn (Example 2)
Method: (§1) Winter wheat variety AWC 13 seeds were treated with either 6-oxo-1,4,5,6-tetrahydropyridazine-3-carboxylic acid (THP) or 1-methyl 6-oxo-1,4,5,6 tetrahydropyridazine-3-carboxylic acid (MTHP) at an effective rate of 10g diluted in 2 L water plus 0.25% Nouryon wetter and applied to 1 ton of seed. These seed were planted in coarse river sand and grown in a greenhouse under ambient light at the greenhouse at 21° C. Plants were irrigated every other day with water containing 50% strength Hoaglands solution. Plants were assessed for emergence and biomass accumulation 30 days after planting. The plants from seeds treated with 6-oxo-1,4,5,6-tetrahydropyridizin-3-carboxylic acid or 1-methyl 6-oxo-1,4,5,6 tetrahydropyridazine-3-carboxylic acid had larger root biomasses (0.83, 0.85 g, dry weight/plant) compared with plants from untreated seeds (0.65 g dry weight/plant). Wheat, corn and pepper seeds were treated with 6-oxo-1,4,5,6-tetrahydropyridizine-3-carboxylic acid (THP) using the same methodology and growth conditions as described in example 1 and the resulting plants were also treated with a light foliar cover spray using an electric hand-held sprayer. (100 g in 200 L water plus 0.25% Nouryon wetter) of 6-oxo-1,4,5,6 tetrahydropyridazine-3-carboxylic acid (30 days post emergence (wheat at Zadoks GS 14 (see FIG. 1), maize at V2, Pepper at 3-4 leaf stage) and then assessed for root and shoot biomass 45 days later. At 75 days post planting the plants were assessed for root and shoot biomass as measured with dry weight.

[5] = system: Winter wheat variety AWC 13; test: Wheat seed treatment, greenhouse, root biomass (Example 1); settings: seed treatment 10g per 1 ton of seed; greenhouse 21° C; 30 days after planting; untreated 0.65
Method: Wheat seeds were treated with 6-oxo-1,4,5,6 tetrahydropyridazine-3-carboxylic acid (THP) and treated plants to examine the impact on shoot and root biomass. Winter wheat variety AWC 13 seeds were treated with either 6-oxo-1,4,5,6-tetrahydropyridazine-3-carboxylic acid (THP) or 1-methyl 6-oxo-1,4,5,6 tetrahydropyridazine-3-carboxylic acid (MTHP) at an effective rate of 10g diluted in 2 L water plus 0.25% Nouryon wetter and applied to 1 ton of seed. These seed were planted in coarse river sand and grown in a greenhouse under ambient light at the greenhouse at 21° C. Plants were irrigated every other day with water containing 50% strength Hoaglands solution. Plants were assessed for emergence and biomass accumulation 30 days after planting. The plants from seeds treated with 6-oxo-1,4,5,6-tetrahydropyridizin-3-carboxylic acid or 1-methyl 6-oxo-1,4,5,6 tetrahydropyridazine-3-carboxylic acid had larger root biomasses (0.83, 0.85 g, dry weight/plant) compared with plants from untreated seeds (0.65 g dry weight/plant).

Wheat = test: Seed treatment plus foliar spray, root and shoot biomass and emergence, wheat (Example 2)
Method: as §1

[6] = seed treatment plus foliar spray 100 g in 200 L, 75 days post planting
[7] = seed treatment, % Emergence at 10 days post planting

**Q.** What does the source list for `O=C1CCC(C(=O)O)=NN1` [THP, 6-oxo-1,4,5,6 tetrahydropyridazine-3-carboxylic acid]?
**A.** Dry Weight Shoot ([1]; Con 0.47): 1.01; Dry Weight Root ([1]; Con 0.65): 1.5; water content retained, relative to normally watered plants ([2]; two foliar treatments 0.1 mM): 67.7%; water content retained, relative to normally watered plants ([2]; two foliar treatments 1 mM): 68.3%; root biomass [3]: 0.85 g dry weight/plant; Tillers per plant, average ([4]; foliar treatment 0.001 mM at Zadoks GS 12): 4.1; Tillers per plant, average ([4]; foliar treatment 0.01 mM at Zadoks GS 12): 9.5; Tillers per plant, average ([4]; foliar treatment 0.1 mM at Zadoks GS 12): 7.4; Root Dry Weight, % Difference vs Untreated (Corn; [6]): 8%; Shoot Dry Weight, % Difference vs Untreated (Corn; [6]): 3%; Emergence, % Difference vs Untreated (Corn; [7]): 11%; root biomass [5]: 0.83 g, dry weight/plant; Root Dry Weight, % Difference vs Untreated (Wheat; [6]): 12%; Shoot Dry Weight, % Difference vs Untreated (Wheat; [6]): 7%; Emergence, % Difference vs Untreated (Wheat; [7]): 16%
